Marks after values point to notes of the source that are not given here.
Experiments:
[1] = test system: rats with focal cerebral ischemia (MCAO)/reperfusion; assay: Prophylactic administration, cerebral ischemia-reperfusion injury (MCAO/R) in rats; format: in vivo; details: Mean ± SD, n = 8; for Cerebral infarction rate (%): 3 days before MCAO/R, 24 h after reperfusion; for behavioral score / cerebral water content (%): MCAO/R
Method: Experimental methods: SD rats were randomly divided into 6 groups, set as sham group, model control group, positive control drug ozagrel (6 mg/kg) group, and test drug compound 1-1 high (9 mg/kg), medium (3 mg/kg), and low (1 mg/kg) dose group. The administered groups were preadministered by tail vein injection, and the sham and model control groups were given an equal volume of saline, once a day for 3 consecutive days. Ten minutes after the last administration, the rat MCAO/R model was established, and reperfusion was performed 2 h after ischemia. 24 h after MCAO reperfusion, neurobehavioral scores were performed to determine the neurological function of rats; 2,3,5-triphenyltetrazolium chloride (TTC) staining method was used to determine the rate of cerebral infarction and cerebral water content in rats.

[2] = test system: mice injected with ellagic acid via the tail vein; assay: Effect on in vivo clotting time in mice (ellagic acid tail vein injection); details: Mus musculus, iv, 100 mg/kg i.g. for 4 days, ellagic acid i.v. 1 h after last dose, vs model group, read-out: Clotting time prolongation (%)
Method: The control and model groups were gavaged with distilled water, and the positive clopidogrel group, and the test substance group were gavaged orally (i.g.) with drug solution in a volume of 0.1 mL/10 g for 4 consecutive days. 1 h after the last administration, all groups were injected with 0.15 mL/10 g of 0.3% ellagic acid solution via tail vein injection except for the blank group which was injected with physiological saline: 0.1 ml/10 g. After 5 min, glass capillaries were used for blood collection through the retro-orbital venous plexus, and the appearance time of coagulation filaments was recorded by glass capillaries at 10-second intervals.
Calculation equation for prolongation of clotting time:
Prolongation of clotting time (%)=[(mean value of clotting time in blank or administered group/mean value of clotting time in model group)−1]×100%

ICR mice = assay: Effect on in vivo bleeding time in mice (tail cut); details: 100 mg/kg i.g. once daily for 4 days
Method: A normal control group (blank), positive control group (clopidogrel) and experimental groups were set up with 10 ICR mice (male, weighed about 25 g) in each group. Animals in each group were administered the corresponding drug solution by oral gavage (i.g.) at 0.1 ml/10 g body weight, and the blank control group was given distilled water, once daily for 4 days. On the 4th day, 1 h after the administration of the drug, the animals were anesthetized by intraperitoneal injection of sodium barbiturate at a dose of about 50 mg/kg, and 20 min later, the tails of the mice were cut at a distance of 3 mm from the tip of the tail, and at regular intervals, absorbent paper was used to dip the blood at the severed tails until no blood exuded, which was recorded as the bleeding time, and the results of the experiment were shown in Table 2.
Calculation equation for prolongation of bleeding time: […]

[3] = test system: rats with myocardial ischemia-reperfusion injury; assay: Myocardial ischemia-reperfusion injury caused by coronary artery ligation in rats; format: in vivo; details: x ± s, n = 8; for Pathological Score: myocardium
Method: Experimental Methods: A model of myocardial ischemia/reperfusion (MI/R) injury caused by coronary artery ligation was established in rats, and animals were grouped into high-dose (20 mg/kg), medium-dose (10 mg/kg), low-dose (5 mg/kg) of the test drug, clopidogrel (7.5 mg/kg), sham, and model groups. Equal volume of 0.5% CMC-Na was administered at 0.5 ml/100 g body weight in both sham and model groups. The drug was administered by gavage (i.g.) once a day for 5 consecutive days. Modeling was performed 30 min after the last administration, and after modeling, 8 successfully modeled rats were selected from each group for subsequent experiments. The sham group was placed a wire under the left anterior descending branch of the coronary artery according to the model preparation method without ligation, and the other groups were modeled according to the model preparation method. The effects of the test drugs on the cardiac infarction rate and the biochemical indexes of creatine kinase (CK), lactate dehydrogenase (LDH), malondialdehyde (MDA), and superoxide dismutase (SOD) in plasma were detected, and TTC staining of the heart was performed to detect the effects of the test drugs on the area of myocardial infarction in MI/R rats.

[4] = test system: rats with focal permanent cerebral ischemia (MCAO); assay: Focal permanent cerebral ischemic injury (MCAO), administration from 3 h post-ischemia; format: in vivo, SD rats; details: for Number of survivors after 15 days animal: 15 enrolled; for Mortality (%): 15-day; for Neurological function score on day 15: Bederson's method; for Weight on day 1 / Weight on day 5 / Weight on day 15: mean body weight
[5] = middle and high dose groups compared with the model group

In the case of `CCOC(=O)CCNC(=O)CCNc1cc(=O)n(C)c(=O)n1C` [Compound 1-1], the “Cerebral infarction rate (%)” value ([1]; 1 mg/kg tail vein) is reported as 25.20 ± 9.71%, the behavioral score ([1]; 1 mg/kg tail vein) is reported as 2.63 ± 0.74 and the “cerebral water content (%)” value ([1]; 1 mg/kg tail vein) is reported as 81.81 ± 0.78%. The “Cerebral infarction rate (%)” value ([1]; 3 mg/kg tail vein) was 22.74 ± 9.12%, the behavioral score ([1]; 3 mg/kg tail vein) was 2.00 ± 0.76 and the “cerebral water content (%)” value ([1]; 3 mg/kg tail vein) was 81.57 ± 0.87%. The “Cerebral infarction rate (%)” value ([1]; 9 mg/kg tail vein) was 17.22 ± 9.35 %, the behavioral score ([1]; 9 mg/kg tail vein) was 1.50 ± 0.53 and the “cerebral water content (%)” value ([1]; 9 mg/kg tail vein) was 80.94 ± 0.92 %. The change in vivo at 100 mg/kg [2] was 43.3%, the “Bleeding time prolongation (%)” value (ICR mice) was −8.89% and the “Cardiac infarction rate (%)” value ([3]; 5 mg/kg i.g. once a day for 5 days) was 12.12 ± 4.45 %. The “Cardiac infarction rate (%)” value ([3]; 10 mg/kg i.g. once a day for 5 days) was 10.99 ± 2.39 %, the “Cardiac infarction rate (%)” value ([3]; 20 mg/kg i.g. once a day for 5 days) was 7.27 ± 1.91**^ΔΔ % and the “Pathological Score” value ([3]; 5 mg/kg i.g.) was 2.00 ± 0.53. For the same compound, the “Pathological Score” value ([3]; 10 mg/kg i.g.) was 1.88 ± 0.83, the “Pathological Score” value ([3]; 20 mg/kg i.g.) was 1.75 ± 0.71 and the “CK (U/mL)” value ([3]; plasma, 5 mg/kg i.g.) was 0.33 ± 0.15 U/mL. The “LDH (U/L)” value ([3]; plasma, 5 mg/kg i.g.) was 5406.70 ± 458.93*^ΔΔ U/L, the “MDA” value ([3]; plasma, 5 mg/kg i.g.) was 13.23 ± 2.89 nmol/mL and the “SOD (U/mL)” value ([3]; plasma, 5 mg/kg i.g.) was 28.29 ± 1.24 U/mL. For the same compound, the “CK (U/mL)” value ([3]; plasma, 10 mg/kg i.g.) was 0.27 ± 0.11 U/mL, the “LDH (U/L)” value ([3]; plasma, 10 mg/kg i.g.) was 3732.06 ± 573.02**^ΔΔ U/L and the “MDA (nmol/mL)” value ([3]; plasma, 10 mg/kg i.g.) was 5.47 ± 1.71**^ΔΔ nmol/mL. For the same compound, the “SOD (U/mL)” value ([3]; plasma, 10 mg/kg i.g.) was 23.99 ± 2.80 U/mL, the “CK (U/mL)” value ([3]; plasma, 20 mg/kg i.g.) was 0.08 ± 0.047 U/mL and the “LDH (U/L)” value ([3]; plasma, 20 mg/kg i.g.) was 4366.03 ± 782.76**^ΔΔ U/L. The “MDA (nmol/mL)” value ([3]; plasma, 20 mg/kg i.g.) was 8.77 ± 2.19**^ΔΔ nmol/mL, the “SOD (U/mL)” value ([3]; plasma, 20 mg/kg i.g.) was 41.02 ± 2.33 U/mL and the “Number of survivors after 15 days animal” value ([4]; 10 mg/kg by gavage once a day) was 8. The “Number of survivors after 15 days animal” value ([4]; 20 mg/kg by gavage once a day) was 11, the “Number of survivors after 15 days animal” value ([4]; 40 mg/kg by gavage once a day) was 10 and the “Mortality (%)” value ([4]; 10 mg/kg by gavage) was 46.67%. The “Mortality (%)” value ([4]; 20 mg/kg by gavage) was 26.67%, the “Mortality (%)” value ([4]; 40 mg/kg by gavage) was 33.33% and the “Neurological function score on day 15” value ([4]; 10 mg/kg) was 0.88. The “Neurological function score on day 15” value ([4]; 20 mg/kg) was 0.75, the “Neurological function score on day 15” value ([4]; 40 mg/kg) was 0.5 and the “Weight on day 1” value ([4]; 10 mg/kg) was 273.73 g. The “Weight on day 5” value ([4]; 10 mg/kg) was 240.73 g, the “Weight on day 15” value ([4]; 10 mg/kg) was 281.38 g and the “Weight on day 1” value ([4]; 20 mg/kg) was 281.93 g. The “Weight on day 5” value ([4]; 20 mg/kg) was 253.67 g, the “Weight on day 15” value ([4]; 20 mg/kg) was 281.10 g and the “Weight on day 1” value ([4]; 40 mg/kg) was 274.93 g. The “Weight on day 5” value ([4]; 40 mg/kg) was 288.25 g, the “Weight on day 15” value ([4]; 40 mg/kg) was 316.80 g and the “infarction rate (TTC staining)” value [4, 5] was “significantly reduced”. The water content [4, 5] was “significantly reduced”.

Reference: patent publication US20250066310A1, “MULTI-SUBSTITUTED URACIL DERIVATIVE AND PREPARATION METHOD THEREFOR AND APPLICATION THEREOF” (HANGZHOU ADAMERCK PHARMLABS INC., priority 2021, published 2025)
